Source: US20060040870A1, “Enhancement of apoptosis by caspase-9 inhibitors” (priority 2004, published 2006)
The star is where a group is joined. Cbz = O=C(OCc1ccccc1)*; CH2F = FC*

Legend:
[1] = system: RAMOS Burkitt lymphoma cell line; assay: Apoptosis by Annexin V staining and flow cytometry, RAMOS; format: cell-based, human; settings: 50 μM, 18 hours
CD33+ myeloid cells = assay: Annexin V staining of sorted cord blood-derived CD33+ myeloid cells removed from MS-5 stroma; format: cell-based, human; settings: cultured 18 hours, DMSO control 27.9 ± 3.9, Time 0 <10
[2] = system: DAUDI Burkitt lymphoma cell line; assay: Apoptosis by Annexin V staining and flow cytometry, DAUDI; format: cell-based; settings: 50 μM, 18 hours
Method: (§1) FIG. 4 is a pair of graphs showing the effect of […] on various cell lines, as determined by Annexin V staining and flow cytometry. The cells included the B-cell precursor ALL cell lines […], and NALM-6, the RAMOS, RAJI, and DAUDI Burkitt lymphoma cell lines, the CCRF-CEM, JURKAT, and H9 T lymphoma cell lines, the K-562 erythroleukemia cell line, and resting or activated (i.e., CD3/CD28 cross-linked) normal human T cells. […] Flow cytometry. Quantitation of apoptotic events was conducted using a FACS Calibur (BD Immunocytometry Systems). All analyses were conducted on cells with lymphoid light scatter characteristics (i.e., low to medium forward scatter and low 90° side scatter). iii. Annexin V. […] Cells were stained according to the manufacturers recommendations.

[3] = system: RAJI Burkitt lymphoma cell line; assay: Apoptosis by Annexin V staining and flow cytometry, RAJI; format: cell-based; settings: 50 μM, 18 hours
Method: as §1

BLIN cell lines = assay: Enhancement of apoptosis in BLIN cell lines (flow cytometry); format: cell-based, human
Method: Flow cytometry. Quantitation of apoptotic events was conducted using a FACS Calibur (BD Immunocytometry Systems). All analyses were conducted on cells with lymphoid light scatter characteristics (i.e., low to medium forward scatter and low 90° side scatter).
i. Mitochondrial transmembrane potential (Δψm). The cationic lipophilic fluorescent dye tetramethylrhodamine, ethyl ester, perchlorate (TMRE) was purchased from Molecular Probes, Inc. (Eugene, Oreg.). TMRE has a high degree of membrane permeability and accumulates into mitochondria in accord with the Nernstian equation (Farkas Biophys J. 1989;56:1053-1069). Cells were washed once and re-suspended to 0.5-1.0×10^6/ml in X-VIVO 10. TMRE was added to a final concentration of 50 nM and the cells were incubated in the dark at 37° C. for 15 minutes. Cells were then washed 2× in PBS, resuspended in PBS containing 2 μg/ml of propidium iodide (PI), and immediately analyzed. The protonophore […] (50 μM, CCCP, Sigma) was used as a positive control to effect loss of Δψm in 100% of cells.
ii. YO-PRO-1. The green fluorescent DNA intercalant dye YO-PRO-1 (Idziorek J Immunol Methods. 1995;185:249-258) was purchased from Molecular Probes as the Vybrant Apoptosis Assay Kit #4. Dual staining with YO-PRO and PI allows for the detection of early apoptotic cells (YO-PRO+/PI−) that have undergone initial changes in permeability to small molecules. Cells were stained according to the manufacturers recommendations.
iii. Annexin V. FITC-labeled Annexin V (BD Pharmingen, San Diego, Calif.) was used to detect external phosphatidylserine residues appearing on the external surface of early apoptotic cells (Koopman Blood. 1994;84:1415-1420). Cells were stained according to the manufacturers recommendations.
General experimental strategy. BLIN cell lines were removed from fibroblast monolayers, washed once and resuspended to 7.5×10^5/ml in X-VIVO 10. Two hundred μL of resuspended cells were added to 96-well flat-bottom microtiter plates (ISC Bioexpress, Kaysville, Vt.), followed by 0.5-1.0 μL of caspase inhibitors in DMSO. An identical volume of DMSO alone was added to separate wells as a vehicle control. This final DMSO concentration of 0.25-0.5% vol/vol had no adverse affect on any of the BLIN cell lines. At the indicated times the entire content of individual wells was harvested and stained in the fluorescent protocols described above.

H9 T lymphoma cell line = assay: Apoptosis by Annexin V staining and flow cytometry, H9; format: cell-based; settings: H9, 50 μM, 18 hours
Method: as §1

[4] = system: activated (CD3/CD28 cross-linked) normal human T cells; assay: Apoptosis by Annexin V staining and flow cytometry, activated normal T cells; format: cell-based; settings: 50 μM, 18 hours
Method: as §1

[5] = system: caspase-9-deficient cells (BLIN-4L, RAMOS); assay: Annexin V apoptosis in caspase-9 siRNA-treated BLIN-4L and RAMOS cells; format: cell-based, human; settings: BLIN-4L and RAMOS electroporated with caspase-9 siRNA, 50 μM, 8 hours
Method: This technology employs a double algorithm. […] In preliminary studies using FITC-conjugated control siRNA (Dharmacon), we determined that the BLIN cell lines could be transfected to >80% efficiency by electroporation. […] BLIN-4L were then diluted into 4.8 ml of X-VIVO 10 supplemented with 10% FBS and 5 ng/ml of IL-7.
The inventors performed further studies to determine whether caspase-9 can be completely knocked out by means of RNA interference (RNAi). […] The inventors discovered that C9i induces apoptosis in caspase-9-deficient cells. BLIN-4L (FIG. 7A) and RAMOS (FIG. 7B) cells were electroporated with 8 μM SMARTpool (Dharmacon Inc.) caspase-9 siRNA or control siRNA and allowed to recover for 3 days in X-VIVO/10% FCS supplemented with 5 ng/ml IL-7 (BLIN-4L), or RPMI/10% FCS (RAMOS). After 3 days, the electroporated populations were assayed for Annexin V binding (to determine background levels of apoptosis), and then cultured in DMSO or 50 μM C9i for 8 hours. The cells were then harvested, stained with Annexin V, and analyzed by flow cytometry. […] Thus, no caspase-9 was present at all in the cells. […] Thus, C9i clearly is acting on another molecule in the cell besides just caspase-9. Also, one can conclude that caspase-9 is not necessary for C9i-induced apoptosis to occur.

JURKAT T lymphoma cells = assay: Fas response of JURKAT T lymphoma cells; format: cell-based; settings: 50 μM

## Z-LEHD-fmk (Cbz-LEHD-CH2F; SMILES CC(C)C[C@H](NC(=O)OCc1ccccc1)C(=O)N[C@@H](CCC(=O)O)C(=O)N[C@@H](Cc1c[nH]cn1)C(=O)N[C@@H](CC(=O)O)C(=O)CF) [C9i]
[1]
  sensitivity (fold-increase in Annexin V+ cells vs DMSO): extremely sensitive
CD33+ myeloid cells
  percentage of total Annexin V+ cells (PI+ and PI−), mean ± SD: 22.3 ± 1.2%
[2]
  sensitivity (fold-increase in Annexin V+ cells vs DMSO): insensitive
[3]
  sensitivity (fold-increase in Annexin V+ cells vs DMSO): insensitive
BLIN cell lines
  lowest concentration at which enhancement of apoptosis occurred: 6.25 µM
BLIN cell lines; BLIN-3 and BLIN-4L maintained on adherent fibroblasts and/or IL-7, 8 hours
  promotion of apoptosis in healthy cells: did not promote apoptosis
BLIN cell lines; BLIN-3 and BLIN-4L maintained on adherent fibroblasts and/or IL-7, 18 hours
  promotion of apoptosis in healthy cells: promoted apoptosis
H9 T lymphoma cell line
  sensitivity (fold-increase in Annexin V+ cells vs DMSO): insensitive
[4]
  sensitivity (fold-increase in Annexin V+ cells vs DMSO): marginally sensitive
[5]
  induction of apoptosis in caspase-9-deficient cells (Annexin V): still induced apoptosis
JURKAT T lymphoma cells
  Fas response of JURKAT T lymphoma cells: blocked the Fas response
